Test results reported in patent US7592308B2, “F3W variants of the lantibiotic mersacidin and its use” (priority 2004, dated 2009).
≈ marks a conversion by molar mass, not a printed value. Read-outs that look alike come from different tables or passages of the source. Square brackets hold non-standard residues; d marks the D form. Ends that are not written are not given here. Dha = C=C(N)C(=O)O

Tests used:
[1] = system: M. luteus 4698; type: cell-based, Micrococcus luteus
Experimental: (§1) A selection of the variants produced in Example 1 above were tested further for activity against a range of bacteria. Minimum inhibitory concentrations (MICs) for all organisms with the exception of Streptococcus pneumoniae were determined by two-fold serial antibiotic dilutions in Mueller-Hinton broth (MHB) supplemented with 50 μg/ml calcium as calcium chloride dihydrate. Minimum inhibitory concentrations (MICs) for S. pneumoniae were determined by two-fold serial antibiotic dilutions in Brain Heart Infusion (BHI) broth supplemented with 50 μg/ml calcium as calcium chloride dihydrate. Antimicrobial agent stock solutions were prepared and stored according to NCCLS standard M7-A6.
(§2) Actively growing broth cultures were diluted to contain […] by adjusting to an absorbance of 0.2-0.3 at 600 nm, equivalent to the McFarland 0.5 standard. They were then diluted a further 1:100 in broth. The assays were performed in duplicate in sterile 96-well microtitre plates in a total volume of 200 μl (160 μl broth, 20 μl antibiotic, 20 μl inoculum) in a concentration range from 64 μg/ml to 0.06 μg/ml. The 12th well of the microtitre plate contained no antimicrobial agent. Vancomycin was used as a reference antibiotic for quality control. Plates were incubated aerobically, shaking, for 18-20 hours at 37° C. with the MIC defined as the lowest concentration of drug that produced no visible growth.

[2] = system: S. pneumoniae R6; type: cell-based, Streptococcus pneumoniae; conditions: Table 8B; BHI broth + 50 μg/ml calcium; duplicate
Experimental: as §1, §2

[3] = system: E. coli SM1411; experiment: MIC, two-fold serial dilution in broth; type: cell-based; conditions: Table 8B; MHB + 50 μg/ml calcium; duplicate
Experimental: as §1
Actively growing broth cultures were diluted to contain […] by adjusting to an absorbance of 0.2-0.3 at 600 nm, equivalent to the McFarland 0.5 standard. They were then diluted a further 1:100 in broth. The assays were performed in duplicate in sterile 96-well microtitre plates in a total volume of 200 μl (160 μl broth, 20 μl antibiotic, 20 μl inoculum) in a concentration range from 64 μg/ml to 0.06 μg/ml. The 12th well of the microtitre plate contained no antimicrobial agent. Vancomycin was used as a reference antibiotic for quality control. […]

[4] = system: S. pyogenes 13608; type: cell-based, Streptococcus pyogenes
Experimental: (§3) MIC tests were performed with some of the variants of Example 2 on a range of other organisms. The results are shown in Tables 9 and 10 (figures in μg/ml): […]

[5] = system: S. pyogenes 16205; type: cell-based, Streptococcus pyogenes
Experimental: as §3

[6] = system: S. aureus 1012-13 MRSA; type: cell-based, Staphylococcus aureus
Experimental: as §3

[7] = system: S. aureus COL MRSA; type: cell-based, Staphylococcus aureus
Experimental: as §3

[8] = system: S. aureus CS; type: cell-based, Staphylococcus aureus
Experimental: as §3

[9] = system: S. aureus SG511; type: cell-based, Staphylococcus aureus
Experimental: as §3

[10] = system: E. faecium 4147 VRE; type: cell-based, Enterococcus faecium; conditions: 4147 VRE
Experimental: as §3

[11] = system: E. faecium 4147-1; type: cell-based, Enterococcus faecium; conditions: 4147-1
Experimental: as §3

[12] = system: M. luteus; conditions: data of Szekat et al.; cited from earlier work
[13] = system: E. faecium 19579; experiment: MIC, two-fold serial dilution in broth; type: cell-based, Enterococcus faecium; conditions: Table 8A; MHB + 50 μg/ml calcium; duplicate
Experimental: as §1, §2

[14] = system: E. faecium 7131121; experiment: MIC, two-fold serial dilution in broth; type: cell-based, Enterococcus faecium; conditions: Table 8A; MHB + 50 μg/ml calcium; duplicate
Experimental: as §1, §2

[15] = system: E. faecalis 29212; experiment: MIC, two-fold serial dilution in broth; type: cell-based, Enterococcus faecalis; conditions: Table 8A; MHB + 50 μg/ml calcium; duplicate
Experimental: as §1, §2

[16] = system: S. aureus R33; type: cell-based, Staphylococcus aureus; conditions: Table 8A; MHB + 50 μg/ml calcium; duplicate
Experimental: as §1, §2

[17] = system: S. aureus SH1000; type: cell-based, Staphylococcus aureus; conditions: Table 8A; MHB + 50 μg/ml calcium; duplicate
Experimental: as §1, §2

[18] = system: S. epidermidis 11047; type: cell-based, Staphylococcus epidermidis; conditions: Table 8B; MHB + 50 μg/ml calcium; duplicate
Experimental: as §1, §2

[19] = system: E. faecium 11.4103A; experiment: MIC, two-fold serial dilution in broth; type: cell-based, Enterococcus faecium; conditions: Table 8B; MHB + 50 μg/ml calcium; duplicate
Experimental: as §1, §2

| Compound | MIC M. luteus 4698 [1]; 4698 [µg/mL] | MIC S. pneumoniae R6 [2] | MIC E. coli SM1411 [3] | MIC S. pyogenes 13608 [4] [µg/mL] | MIC S. pyogenes 16205 [5] [µg/mL] | MIC S. aureus 1012-13 MRSA [6] [µg/mL] | MIC S. aureus COL MRSA [7] [µg/mL] | MIC S. aureus CS [8] [µg/mL] | MIC S. aureus SG511 [9] [µg/mL] | MIC E. faecium 4147 VRE [10] [µg/mL] | MIC E. faecium 4147-1 [11] [µg/mL] | MIC against M. luteus [12] [µg/mL] | MIC E. faecium 19579 [13] | MIC E. faecium 7131121 [14] | MIC E. faecalis 29212 [15] | MIC S. aureus R33 [16] | MIC S. aureus SH1000 [17] | MIC S. epidermidis 11047 [18] | MIC E. faecium 11.4103A [19] | MIC M. luteus 4698 ([1]; Table 8B, MHB + 50 μg/ml calcium, duplicate) |
| --- | --- | --- | --- | --- | --- | --- | --- | --- | --- | --- | --- | --- | --- | --- | --- | --- | --- | --- | --- | --- |
| C=C1NC(=O)C2NC(=O)[C@H](CC(C)C)NC(=O)C(NC(=O)[C@@H]3CSC(C)C(NC(=O)[C@H](Cc4ccccc4)NC(=O)C4NC(=O)[C@@H](N)CSC4C)C(=O)N[C@@H](CC(C)C)C(=O)N4CCC[C@H]4C(=O)NCC(=O)NCC(=O)NCC(=O)NCC(=O)N[C@@H](C(C)C)C(=O)N3)C(C)SC[C@H](NC(=O)[C@H](CCC(=O)O)NC1=O)C(=O)N[C@@H]([C@@H](C)CC)C(=O)NC=CSC2C (stereo partly drawn) [Mersacidin, mersacidin] | 0.5 (≈ 0.274 µM) | <4, <4 μg/ml | >64, >64 μg/ml | 0.25 (≈ 0.137 µM) | 0.5 (≈ 0.274 µM) | 8 (≈ 4.38 µM) | 16 (≈ 8.76 µM) | 4 (≈ 2.19 µM) | 2 (≈ 1.1 µM) | 64 (≈ 35 µM) | 64 (≈ 35 µM) | 0.195 (≈ 0.107 µM) |  |  |  |  |  |  |  |  |
| G9R: mersacidin variant (CTFTLPGGRGVCTLT[Dha]ECIC; thioether (positions not given here); not fully specified; UniProt P43683 49-68, looked up, variant G9R) |  | >64, >64 μg/ml |  |  |  |  |  |  |  |  |  |  | >64, >64 μg/ml | >64, >64 μg/ml | >64, >64 μg/ml | >64, >64 μg/ml | >64, >64 μg/ml | >64, >64 μg/ml |  |  |
| G9S: mersacidin variant (CTFTLPGGSGVCTLT[Dha]ECIC; thioether (positions not given here); not fully specified; UniProt P43683 49-68, looked up, variant G9S) |  | >64, >64 μg/ml |  |  |  |  |  |  |  |  |  |  | >64, >64 μg/ml | >64, >64 μg/ml | >64, >64 μg/ml | >64, >64 μg/ml | >64, >64 μg/ml | >64, >64 μg/ml |  |  |
| G10N: mersacidin variant (CTFTLPGGGNVCTLT[Dha]ECIC; thioether (positions not given here); not fully specified; UniProt P43683 49-68, looked up, variant G10N) |  | >64, >64 μg/ml |  |  |  |  |  |  |  |  |  |  | >64, >64 μg/ml | >64, >64 μg/ml | >64, >64 μg/ml | >64, >64 μg/ml | >64, >64 μg/ml | >64, >64 μg/ml |  |  |
| G10V: mersacidin variant (CTFTLPGGGVVCTLT[Dha]ECIC; thioether (positions not given here); not fully specified; UniProt P43683 49-68, looked up, variant G10V) |  |  |  |  |  |  |  |  |  |  |  |  | >64, >64 μg/ml |  | >64, >64 μg/ml | >64, >64 μg/ml | >64, >64 μg/ml |  | >64, >64 μg/ml | <4, <4 μg/ml |
